Measurements reported in ChEMBL document CHEMBL5576143, “Discovery of CW-3308 as a Potent, Selective, and Orally Efficacious PROTAC Degrader of BRD9” (J Med Chem, 2024).

What was measured:
[1] = Metabolic stability in dog liver microsome assessed as half-life at 1 uM preincubated for 5 mins followed by NADPH addition and measured upto 60 mins by LC-MS/MS analysis; format: ADME, Canis lupus familiaris; conditions: liver microsomes, time < 65 min
[2] = in vitro; conditions: human, liver microsomes
[3] = in vitro; conditions: mouse, liver microsomes
[4] = Metabolic stability in monkey liver microsome assessed as half-life at 1 uM preincubated for 5 mins followed by NADPH addition and measured upto 60 mins by LC-MS/MS analysis; format: ADME, Macaca mulatta; conditions: rhesus monkey, liver microsomes, time < 65 min
[5] = in vitro; conditions: rat, liver microsomes
[6] = Oral bioavailability in rat at 3 mg/kg; format: ADME, organism-based; conditions: in vivo
[7] = Volume of distribution at steady state in rat at 3 mg/kg, po or 1 mg/kg, iv; format: ADME, organism-based; conditions: in vivo
[8] = in vitro; conditions: human, Caco-2
[9] = Half-life in rat at 3 mg/kg, po or 1 mg/kg, iv; format: ADME, organism-based; conditions: in vivo
[10] = in vitro; conditions: human, Caco-2; remark: listed apart in the source
[11] = Cmax in rat at 3 mg/kg, po or 1 mg/kg, iv; format: ADME, organism-based; conditions: in vivo
[12] = AUC in rat at 3 mg/kg, po or 1 mg/kg, iv; format: ADME, organism-based; conditions: in vivo

| half-life at 1 µM [1] [h] | half-life at 1 h, 1 µM [2] [h] | half-life at 1 h, 1 µM [3] [h] | half-life at 1 µM [4] [h] | half-life at 1 h, 1 µM [5] [h] | bioavailability [6] [%] | Vdss [7] [L/kg] | Papp B→A at 2 h, 10 µM [8] [×10⁻⁶ cm/s] | half-life [9] [h] | Papp A→B at 2 h, 10 µM [10] [×10⁻⁶ cm/s] | Cmax [11] [ng/mL] | AUC [12] [ng·h/mL] | SMILES |
| --- | --- | --- | --- | --- | --- | --- | --- | --- | --- | --- | --- | --- |
| > 1 | > 1 | > 1 | 0.9 | > 1 | 70 | 5 | – | – | – | – | – | CN1Cc2cc3c(cc2C1)C(=O)N(C1CCC(=O)NC1=O)C3=O (centres undefined) |
| > 1 | > 1 | > 1 | > 1 | > 1 | 60 | 2.9 | 6.8 | 2.2 | 2.55 | 276 | 1500 | CN1Cc2cc3c(cc2C1)C(=O)N(C1CCC(=O)NC1=O)C3 (centres undefined) |
